Columns and labels:
P-gp [1] = molecular target: T1, P-gp (Homo sapiens, UniProt P08183); type: biochemical
[2] = test system: P-gp of CEM leukemia cells; settings: cited from earlier work
[3] = dual perfusion of human placental lobule; cited from earlier work
P-gp [4] = molecular target: T1, P-gp; assay: in vitro
P-gp [5] = molecular target: T1, P-gp; assay: Inhibition of [3H]-paclitaxel uptake by placental inside-out vesicles
[6] = placental IOVs 0.05 mg/mL, 20–500 nM [3H] paclitaxel, n = 10, mean ± SEM

T1 sequence (P08183 whole entry): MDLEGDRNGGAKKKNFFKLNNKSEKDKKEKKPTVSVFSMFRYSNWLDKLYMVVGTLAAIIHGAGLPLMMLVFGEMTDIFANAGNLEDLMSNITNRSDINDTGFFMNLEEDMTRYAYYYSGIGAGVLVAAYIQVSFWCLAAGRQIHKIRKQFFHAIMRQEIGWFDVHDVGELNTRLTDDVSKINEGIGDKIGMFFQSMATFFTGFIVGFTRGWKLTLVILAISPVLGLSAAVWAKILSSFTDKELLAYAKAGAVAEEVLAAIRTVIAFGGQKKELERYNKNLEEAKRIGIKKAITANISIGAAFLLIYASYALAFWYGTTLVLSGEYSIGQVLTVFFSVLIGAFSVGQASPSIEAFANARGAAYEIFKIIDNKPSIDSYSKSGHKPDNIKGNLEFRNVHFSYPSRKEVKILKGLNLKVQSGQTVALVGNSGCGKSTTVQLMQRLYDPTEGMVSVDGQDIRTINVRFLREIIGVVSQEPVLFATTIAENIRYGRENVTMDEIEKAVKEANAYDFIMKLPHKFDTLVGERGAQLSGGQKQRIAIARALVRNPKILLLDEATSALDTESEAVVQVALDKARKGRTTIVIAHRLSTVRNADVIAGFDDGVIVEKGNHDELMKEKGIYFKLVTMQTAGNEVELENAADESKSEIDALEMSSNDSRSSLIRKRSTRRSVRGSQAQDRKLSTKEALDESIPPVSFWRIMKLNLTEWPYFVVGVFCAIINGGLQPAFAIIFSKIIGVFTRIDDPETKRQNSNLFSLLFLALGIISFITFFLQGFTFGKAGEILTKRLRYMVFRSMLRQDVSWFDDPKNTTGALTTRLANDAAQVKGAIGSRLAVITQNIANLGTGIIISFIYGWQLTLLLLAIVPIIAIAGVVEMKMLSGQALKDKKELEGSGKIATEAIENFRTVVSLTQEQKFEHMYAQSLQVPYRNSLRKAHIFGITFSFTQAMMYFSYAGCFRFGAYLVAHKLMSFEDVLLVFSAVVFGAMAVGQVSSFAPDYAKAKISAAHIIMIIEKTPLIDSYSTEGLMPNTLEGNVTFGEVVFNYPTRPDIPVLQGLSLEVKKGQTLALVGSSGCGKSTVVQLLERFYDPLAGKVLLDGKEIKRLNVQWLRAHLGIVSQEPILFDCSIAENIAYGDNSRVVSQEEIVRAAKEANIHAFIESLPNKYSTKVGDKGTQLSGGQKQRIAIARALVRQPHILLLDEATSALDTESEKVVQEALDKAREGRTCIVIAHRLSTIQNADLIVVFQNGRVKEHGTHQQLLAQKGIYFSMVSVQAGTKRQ

CC(=O)O[C@H]1C(=O)[C@@]2(C)[C@H]([C@H](OC(=O)c3ccccc3)[C@]3(O)C[C@H](OC(=O)[C@H](O)[C@@H](NC(=O)c4ccccc4)c4ccccc4)C(C)=C1C3(C)C)[C@]1(OC(C)=O)CO[C@@H]1C[C@@H]2O [paclitaxel]
ATP dependent uptake of [3H]-paclitaxel into IOVs, mean (P-gp [1]; 200 individual placentas, mean): 23 pmol*mg protein^−1min^−1
ATP dependent uptake of [3H]-paclitaxel into IOVs, range (P-gp [1]; 200 individual placentas, range): 1–140 pmol*mg protein^−1min^−1
Vmax of ATP-dependent [3H] paclitaxel uptake (P-gp [1]; [6]): 20 ± 3 pmol*mg protein^−1min^−1
apparent Kt of ATP-dependent [3H] paclitaxel uptake (P-gp [1]; [6]): 66 ± 38 nM
apparent Kt of paclitaxel transport, CEM cells overexpressing P-gp ([2]; cells passaged in vinblastine, multidrug resistant, overexpressing P-gp): 63 ± 46 nM
Kt of paclitaxel transport, parental CEM cells ([2]; parental cells): 144 ± 56 nM

CCC(=O)C(CC(C)N(C)C)(c1ccccc1)c1ccccc1 (stereo not drawn) [methadone]
rate of transfer from the maternal to fetal circuit [3]: 29.4 ± 4.6%
inhibition at 1 min (P-gp [4]): 60%

COc1ccc(CCN(C)CCCC(C#N)(c2ccc(OC)c(OC)c2)C(C)C)cc1OC (stereo not drawn) [verapamil]
inhibition at 1 min, 2 mM (P-gp [5]): 99 ± 9%

Source: publication PMC2748165 (Biochemical pharmacology, 2009)
